Each structure is given as a SMILES string. pIC50: −log10 of the molar value. Where two headings read alike, the source gives them in different places.

One experiment has as its target Human factor Xa (Homo sapiens, UniProt P00742). In words: Xa Assay.
For another experiment, the target named is T1, TF-VIIa (Homo sapiens, UniProt P08709).
T1 construct: 2nM recombinant human factor VIIa; purchased American Diagnostica, Greenwich CT; host or cells: soluble TF made in house in E. coli
Kind of experiment: TF-VIIa Assay. It is filed as biochemical.

The mark [1] stands for this setting: cells given as a plain number (IC50); read-out: IC50 or % Inhibition TF-VIIa (30 µM).
Where [2] appears, read: read-out: IC50 or % Inhibition Factor Xa (30 µM), cells given as a plain number (IC50).
The mark [3] stands for this setting: read-out: IC50 or % Inhibition TF-VIIa (30 µM); cells given as a plain number (IC50).

T1 sequence (P08709 213-466 limits assumed): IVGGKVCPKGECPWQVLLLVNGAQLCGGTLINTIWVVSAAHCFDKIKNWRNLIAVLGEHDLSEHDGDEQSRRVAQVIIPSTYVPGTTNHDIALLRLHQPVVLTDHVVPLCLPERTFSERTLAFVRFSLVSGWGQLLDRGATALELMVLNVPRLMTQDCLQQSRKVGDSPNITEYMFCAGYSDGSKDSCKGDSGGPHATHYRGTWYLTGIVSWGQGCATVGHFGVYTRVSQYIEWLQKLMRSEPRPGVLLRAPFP
T1 sequence (P08709 61-212 limits assumed): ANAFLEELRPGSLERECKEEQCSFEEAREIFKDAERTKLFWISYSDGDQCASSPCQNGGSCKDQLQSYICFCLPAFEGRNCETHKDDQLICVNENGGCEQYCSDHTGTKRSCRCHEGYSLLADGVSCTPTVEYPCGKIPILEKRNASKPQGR
T1 sequence (P13726 33-251 partner limits assumed): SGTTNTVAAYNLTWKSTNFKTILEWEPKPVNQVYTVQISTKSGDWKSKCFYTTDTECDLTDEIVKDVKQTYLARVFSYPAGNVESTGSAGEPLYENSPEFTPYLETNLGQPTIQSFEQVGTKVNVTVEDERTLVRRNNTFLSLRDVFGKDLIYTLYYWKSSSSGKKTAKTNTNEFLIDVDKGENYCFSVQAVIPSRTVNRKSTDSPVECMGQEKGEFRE
Chain of Human factor Xa (P00742 235-488 limits assumed): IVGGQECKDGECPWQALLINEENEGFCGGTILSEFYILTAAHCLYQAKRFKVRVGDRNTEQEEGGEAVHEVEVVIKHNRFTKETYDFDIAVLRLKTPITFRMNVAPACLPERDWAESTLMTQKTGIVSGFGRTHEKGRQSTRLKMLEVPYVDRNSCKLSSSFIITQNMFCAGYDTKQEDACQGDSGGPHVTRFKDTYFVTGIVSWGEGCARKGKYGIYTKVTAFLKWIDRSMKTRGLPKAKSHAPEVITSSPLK
Chain of Human factor Xa (P00742 41-179 limits assumed): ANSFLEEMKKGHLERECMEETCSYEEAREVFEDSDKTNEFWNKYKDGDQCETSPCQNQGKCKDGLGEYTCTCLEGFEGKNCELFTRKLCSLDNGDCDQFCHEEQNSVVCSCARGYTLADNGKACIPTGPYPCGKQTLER

In the case of `N=C(N)NCCCCNc1nc(Cl)c(-c2ccccc2)n(CC(=O)NCc2ccc(C(=N)N)cc2)c1=O` [Example 49], the pIC50 (as a rule, −log10 of the IC50, conventionally taken in molar units) on Human factor Xa was 4.54; at TF-VIIa (setting [1]), 6.24.
Regarding `C[C@H](Nc1nc(Cl)c(-c2ccccc2)n(CC(=O)NCc2ccc(C(=N)N)cc2)c1=O)c1ccccc1` [1507-34], the results for the pIC50 at Human factor Xa (setting [2]) and at TF-VIIa (setting [3]) were below 4.52 and 5.07, respectively.
Take `N=C(N)c1ccc(CNC(=O)Cn2c(-c3cccs3)c(Cl)nc(NCCc3ccccc3)c2=O)cc1` [1515-30]: the results for the pIC50 at Human factor Xa (setting [2]) and on TF-VIIa (setting [3]) were below 4.52 and 5.92, respectively.
`COCCNc1nc(Cl)c(-c2cccc(N)c2)n(CC(=O)NCc2ccc(C(=N)N)cc2)c1=O` [1526-25]: the pIC50 is below 4.52 at Human factor Xa (setting [2]) and 6.85 at TF-VIIa (setting [1]).
